Structures are written as SMILES.

For the first assay, the target named is T1, α-glucosidase (yeast, type I) (Saccharomyces cerevisiae, UniProt P53341).
T1 construct: purchased Sigma Chemicals, U.S.A
T1 sequence (P53341 whole entry): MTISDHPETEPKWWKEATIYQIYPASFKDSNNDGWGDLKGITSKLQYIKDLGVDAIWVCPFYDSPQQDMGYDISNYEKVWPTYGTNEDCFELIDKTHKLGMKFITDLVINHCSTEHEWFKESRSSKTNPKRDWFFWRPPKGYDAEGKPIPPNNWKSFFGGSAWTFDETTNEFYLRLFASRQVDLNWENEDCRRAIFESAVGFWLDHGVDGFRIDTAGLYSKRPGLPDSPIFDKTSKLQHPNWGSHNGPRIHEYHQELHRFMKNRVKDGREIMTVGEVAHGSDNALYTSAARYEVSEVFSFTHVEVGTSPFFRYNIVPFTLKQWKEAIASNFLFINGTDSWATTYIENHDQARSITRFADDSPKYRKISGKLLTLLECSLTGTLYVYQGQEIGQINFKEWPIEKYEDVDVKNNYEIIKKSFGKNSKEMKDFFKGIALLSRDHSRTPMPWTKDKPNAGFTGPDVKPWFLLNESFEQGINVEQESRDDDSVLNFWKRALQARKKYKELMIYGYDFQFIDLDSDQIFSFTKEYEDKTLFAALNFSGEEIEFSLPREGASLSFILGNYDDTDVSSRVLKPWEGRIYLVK
In words: α-glucosidase inhibitory activity, p-nitrophenyl-α-D-glucopyranoside as substrate. Type of assay: biochemical.
Details: not given
As for the experimental part: The inhibitory activity of the compounds of this invention against α-glucosidase (yeast, type I, produced by Sigma Chemicals, U.S.A.), when p-nitrophenyl-α-D-glucopyranoside is used as a substrate, is determined by adding 0.5 ml of a solution of an inhibitor of this invention in 0.02M phosphate buffer (pH 6.8) and 0.25 ml of 0.01M p-nitrophenyl-α-D-glucopyranoside in the same buffer to 0.25 ml of a solution of α-glucosidase in the same buffer (0.005 mg/ml), allowing the reaction to proceed at 37° C. for 15 minutes, then adding 3 ml of 0.1M aqueous sodium carbonate solution to terminate the reaction, and measuring the absorbance of the reaction solution at 400 nm. The 50% inhibition concentration of the inhibitor is calculated from the inhibition rates (%) which are determined with inhibitory substance samples of three to five different concentrations.
(§1) When 0.05M maltose is used as a substrate, the inhibitory activity against maltase prepared from porcine intestinal mucosa is determined by measuring the amount of released D-glucose by use of glucose oxidase [Glucose B-Test Wako (a reagent for clinical diagnostic use for determining glucose, produced by Wako Pure Chemical Co. Japan)] to calculate the 50% inhibition concentration. The molar concentration required for 50% inhibition (IC50) of the α-glucosidase inhibitors represented by the formula [I], to inhibit activity of α-glucosidase (yeast), is shown in Table 1 and that to inhibit activity of maltase (porcine intestinal mucosa) is in Table 2.
The compound `CC(Cc1ccccc1)N[C@H]1C=C(CO)[C@@H](O)[C@H](O)[C@H]1O` (stereo partly drawn) [Example 21, N-(α-methylphenethyl)valienamine] showed an IC50 of 0.13 µM.

The same assay, now with this note: Table 1; α-glucosidase (yeast); pH 6.8, 37° C., 15 minutes; read-out: IC50 (molar concentration required for 50% inhibition).
`OCC1=C[C@H](NCc2ccccc2)[C@H](O)[C@@H](O)[C@@H]1O`: the IC50 turned out to be 9.2 µM. The same measure, in the same setting: as for `OCC1=C[C@H](NCc2cccs2)[C@H](O)[C@@H](O)[C@@H]1O`, the figure is 38 µM; as for `OCC1=C[C@H](NCc2ccco2)[C@H](O)[C@@H](O)[C@@H]1O`, 150 µM; as for `OCC1=C[C@H](NCc2cccnc2)[C@H](O)[C@@H](O)[C@@H]1O`, 56 µM.

Consider `Cc1ccc(CN[C@H]2C=C(CO)[C@@H](O)[C@H](O)[C@H]2O)cc1`, for which the IC50 is 20 µM.

For `COc1ccc(CN[C@H]2C=C(CO)[C@@H](O)[C@H](O)[C@H]2O)cc1`, the IC50 was found to be 18 µM. In the case of `O=C(O)c1ccc(CN[C@H]2C=C(CO)[C@@H](O)[C@H](O)[C@H]2O)cc1`, the IC50 stood at 150 µM. Consider `CC(N[C@H]1C=C(CO)[C@@H](O)[C@H](O)[C@H]1O)c1ccccc1` (some centres unmarked), for which the IC50 turned out to be 13 µM.

Consider `CC(CN[C@H]1C=C(CO)[C@@H](O)[C@H](O)[C@H]1O)c1ccccc1` (some centres unmarked), for which the IC50 amounted to 13 µM. Consider `OCC1=C[C@H](NCC=Cc2ccccc2)[C@H](O)[C@@H](O)[C@@H]1O`, for which the IC50 came out at 20 µM. For the compound `OCC1=C[C@H](NCCCOc2ccccc2)[C@H](O)[C@@H](O)[C@@H]1O`, the IC50 worked out at 1.1 µM. Consider `OCC1=C[C@H](NCCCCCc2ccccc2)[C@H](O)[C@@H](O)[C@@H]1O`, for which the IC50 was 0.75 µM. The same measure, in the same setting: as for `OCC1=C[C@H](NCC(c2ccccc2)c2ccccc2)[C@H](O)[C@@H](O)[C@@H]1O`, the figure is 0.038 µM. On the same count and under the same terms, as for `OCC1=C[C@H](NCC2CCCCC2)[C@H](O)[C@@H](O)[C@@H]1O`, the figure is 0.38 µM; as for `CC(C)(C)c1cc(CN[C@H]2C=C(CO)[C@@H](O)[C@H](O)[C@H]2O)cc(C(C)(C)C)c1O`, 12 µM; as for `OCC1=C[C@H](NC[C@H](O)[C@@H](O)[C@H](O)[C@H](O)CO)[C@H](O)[C@@H](O)[C@@H]1O`, 110 µM. With `OCC1=C[C@H](NC[C@H](O)[C@@H](O)[C@@H](O)[C@H](O)CO)[C@H](O)[C@@H](O)[C@@H]1O`, the IC50 was 160 µM. For `OCC1=C[C@H](NC(CO)[C@@H](O)[C@H](O)[C@H](O)CO)[C@H](O)[C@@H](O)[C@@H]1O` (some centres unmarked), the IC50 came out at 110 µM. Same read-out and setting: as for `OCC1=C[C@H](NC[C@@H](O)[C@@H](O)[C@H](O)[C@H](O)CO)[C@H](O)[C@@H](O)[C@@H]1O`, the figure is 100 µM; as for `OCC1=C[C@H](NC[C@@H](O)[C@H](O)[C@H](O)CO)[C@H](O)[C@@H](O)[C@@H]1O`, 120 µM; as for `OCC1=C[C@H](NC[C@H](O)[C@H](O)[C@H](O)CO)[C@H](O)[C@@H](O)[C@@H]1O`, 90 µM. As for `OCC1=C[C@H](NC[C@H](O)[C@@H](O)[C@H](O)CO)[C@H](O)[C@@H](O)[C@@H]1O`, the IC50 is 110 µM. Turning to `CCCCN[C@H]1C=C(CO)[C@@H](O)[C@H](O)[C@H]1O` [CH2 CH2 CH2 CH3, N-n-butylvalienamine], the IC50 was 21 µM. Same read-out and setting: as for `OCC1=C[C@H](NCCc2ccccc2)[C@H](O)[C@@H](O)[C@@H]1O` [drawing 15], the figure is 1.8 µM; as for `OCC1=C[C@H](NCC(O)c2ccccc2)[C@H](O)[C@@H](O)[C@@H]1O` (some centres unmarked) [drawing 16], 1.1 µM; as for `OCC1=C[C@H](NCCCc2ccccc2)[C@H](O)[C@@H](O)[C@@H]1O` [drawing 18], 2.2 µM. As to `OCC1=C[C@H](NCCCCc2ccccc2)[C@H](O)[C@@H](O)[C@@H]1O` [drawing 20], the IC50 amounted to 0.98 µM. As to `OCC1=C[C@H](NCc2ccc(O)cc2)[C@H](O)[C@@H](O)[C@@H]1O` [drawing 23], the IC50 was determined as 5 µM. Regarding `COc1ccccc1C(O)CN[C@H]1C=C(CO)[C@@H](O)[C@H](O)[C@H]1O` (some centres unmarked) [drawing 24], the IC50 was 0.38 µM. For `CC(C)=CCC/C(C)=C/CN[C@H]1C=C(CO)[C@@H](O)[C@H](O)[C@H]1O` [drawing 27], the IC50 came to 1.7 µM. As for `OCC1=C[C@H](NC(CO)CO)[C@H](O)[C@@H](O)[C@@H]1O` [drawing 29], the IC50 turned out to be 66 µM.

`OCC1=C[C@H](NC(CO)[C@@H](O)[C@H](O)[C@@H](O)CO)[C@H](O)[C@@H](O)[C@@H]1O` (some centres unmarked) [drawing 37]: the IC50 was found to be 130 µM.

For a further assay, the target named is T2, saccharase (porcine intestinal mucosa) (Sus scrofa, UniProt P56729).
T2 construct: saccharase prepared from porcine intestinal mucosa; from tissue; host or cells: porcine intestinal mucosa
T2 sequence (P56729 with tags, fused parts or gaps limits assumed): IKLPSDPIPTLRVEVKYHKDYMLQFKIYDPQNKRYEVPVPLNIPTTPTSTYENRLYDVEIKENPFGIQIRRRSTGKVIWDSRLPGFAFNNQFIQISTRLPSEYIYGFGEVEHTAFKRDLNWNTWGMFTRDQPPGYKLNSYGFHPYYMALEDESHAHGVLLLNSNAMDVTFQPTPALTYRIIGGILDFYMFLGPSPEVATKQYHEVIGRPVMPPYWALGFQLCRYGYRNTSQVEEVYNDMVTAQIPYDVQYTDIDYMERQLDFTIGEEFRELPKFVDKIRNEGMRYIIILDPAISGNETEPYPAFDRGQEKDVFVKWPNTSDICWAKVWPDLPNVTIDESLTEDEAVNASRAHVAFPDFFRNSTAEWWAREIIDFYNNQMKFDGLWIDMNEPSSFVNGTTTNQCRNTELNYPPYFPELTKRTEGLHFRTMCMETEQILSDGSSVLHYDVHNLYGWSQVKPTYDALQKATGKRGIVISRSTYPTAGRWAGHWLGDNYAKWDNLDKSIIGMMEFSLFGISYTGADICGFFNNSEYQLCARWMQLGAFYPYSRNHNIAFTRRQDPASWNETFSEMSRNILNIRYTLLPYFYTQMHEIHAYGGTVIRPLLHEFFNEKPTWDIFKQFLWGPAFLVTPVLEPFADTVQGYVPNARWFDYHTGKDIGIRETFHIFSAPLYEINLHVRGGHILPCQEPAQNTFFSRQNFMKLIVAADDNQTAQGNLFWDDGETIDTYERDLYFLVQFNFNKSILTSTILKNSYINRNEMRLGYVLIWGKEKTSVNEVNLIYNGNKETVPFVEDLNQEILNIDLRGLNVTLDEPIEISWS
T2 sequence (P56729 with tags, fused parts or gaps partner limits assumed): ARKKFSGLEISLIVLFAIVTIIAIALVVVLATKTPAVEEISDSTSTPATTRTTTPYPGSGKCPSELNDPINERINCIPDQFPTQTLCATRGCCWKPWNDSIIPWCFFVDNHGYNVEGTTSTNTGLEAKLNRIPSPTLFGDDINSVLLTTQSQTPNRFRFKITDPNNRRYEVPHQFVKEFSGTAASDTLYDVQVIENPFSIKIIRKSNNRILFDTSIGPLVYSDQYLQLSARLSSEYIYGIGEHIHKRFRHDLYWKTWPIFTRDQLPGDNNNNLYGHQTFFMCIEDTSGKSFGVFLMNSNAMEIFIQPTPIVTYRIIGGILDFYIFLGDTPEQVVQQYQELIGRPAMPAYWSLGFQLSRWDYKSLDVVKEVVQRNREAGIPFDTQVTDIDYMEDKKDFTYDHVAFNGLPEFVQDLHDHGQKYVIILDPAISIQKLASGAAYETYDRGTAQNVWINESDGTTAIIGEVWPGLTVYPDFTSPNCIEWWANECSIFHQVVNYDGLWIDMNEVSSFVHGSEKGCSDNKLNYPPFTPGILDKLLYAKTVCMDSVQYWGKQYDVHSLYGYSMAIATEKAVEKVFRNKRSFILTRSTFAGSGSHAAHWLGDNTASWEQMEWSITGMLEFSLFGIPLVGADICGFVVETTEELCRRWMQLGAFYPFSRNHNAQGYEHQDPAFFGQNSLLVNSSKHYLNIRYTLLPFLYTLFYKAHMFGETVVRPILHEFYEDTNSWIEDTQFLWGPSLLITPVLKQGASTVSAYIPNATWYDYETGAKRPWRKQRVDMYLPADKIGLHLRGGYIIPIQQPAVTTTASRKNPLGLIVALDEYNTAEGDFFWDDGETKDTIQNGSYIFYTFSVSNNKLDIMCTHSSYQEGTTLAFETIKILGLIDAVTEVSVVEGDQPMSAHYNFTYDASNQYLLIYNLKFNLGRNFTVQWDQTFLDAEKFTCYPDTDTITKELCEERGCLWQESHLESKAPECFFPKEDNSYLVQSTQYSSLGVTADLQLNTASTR
Put plainly: inhibitory activity against saccharase. Type of assay: biochemical.
Details: not given
As for the experimental part:
The inhibitory activity against saccharase prepared from porcine intestinal mucosa is determined by a similar method to that against maltase in accordance with the method described in Acta. Chem. Scand., 12, 1997-2006 (1958).
`OCC1=C[C@H](NC2CCCCC2O)[C@H](O)[C@@H](O)[C@@H]1O` (some centres unmarked) [Example 36, N-(2-hydroxycyclohexyl)valienamine]: the IC50 was found to be 0.17 µM.

For a further assay, the target named is maltase (porcine intestinal mucosa). Put plainly: inhibitory activity against maltase, 0.05M maltose as substrate. Type of assay: biochemical. The settings on record: Table 2, read-out: IC50 (molar concentration required for 50% inhibition). As for the experimental part:
as §1
`OCC1=C[C@H](NCc2ccc(Br)cc2)[C@H](O)[C@@H](O)[C@@H]1O`: the IC50 was 75 µM.

`OCC1=C[C@H](NCC(O)COc2ccccc2)[C@H](O)[C@@H](O)[C@@H]1O` (some centres unmarked): the IC50 came to 24 µM. On the same count and under the same terms, as for `OCC1=C[C@H](NC(CO)c2ccccc2)[C@H](O)[C@@H](O)[C@@H]1O` (some centres unmarked), the figure is 14 µM; as for `OCC1=C[C@H](NC(CO)C(O)c2ccccc2)[C@H](O)[C@@H](O)[C@@H]1O` (some centres unmarked), 9.6 µM; as for `OCC1=C[C@H](NCc2ccc(O)c(O)c2)[C@H](O)[C@@H](O)[C@@H]1O`, 8.1 µM. Same read-out and setting: as for `OCC1=C[C@H](NCCc2ccccc2)[C@H](O)[C@@H](O)[C@@H]1O` [drawing 38], the figure is 11 µM; as for `OCC1=C[C@H](NCCCc2ccccc2)[C@H](O)[C@@H](O)[C@@H]1O` [drawing 39], 20 µM. With `OCC1=C[C@H](NCCCCc2ccccc2)[C@H](O)[C@@H](O)[C@@H]1O` [drawing 40], the IC50 was 80 µM. Still for that read-out and setting: as for `OCC1=C[C@H](NCC(O)c2ccccc2)[C@H](O)[C@@H](O)[C@@H]1O` (some centres unmarked) [drawing 41], the figure is 3.2 µM; as for `OCC1=C[C@H](NCc2ccc(O)cc2)[C@H](O)[C@@H](O)[C@@H]1O` [drawing 43], 19 µM. `CC(Cc1ccccc1)N[C@H]1C=C(CO)[C@@H](O)[C@H](O)[C@H]1O` (some centres unmarked) [drawing 46]: the IC50 stood at 2.4 µM. For `COc1ccccc1C(O)CN[C@H]1C=C(CO)[C@@H](O)[C@H](O)[C@H]1O` (some centres unmarked) [drawing 47], the IC50 was found to be 3.1 µM.

Turning to `CC(C)=CCC/C(C)=C/CN[C@H]1C=C(CO)[C@@H](O)[C@H](O)[C@H]1O` [drawing 48], the IC50 was 5.2 µM. As to `OCC1=C[C@H](NC(CO)CO)[C@H](O)[C@@H](O)[C@@H]1O` [drawing 49], the IC50 is 14 µM. In the case of `OCC1=C[C@H](NC(CO)[C@@H](O)[C@H](O)[C@@H](O)CO)[C@H](O)[C@@H](O)[C@@H]1O` (some centres unmarked) [drawing 50], the IC50 is 14 µM.

The subject of a further assay is α-glucoside hydrolase. Put plainly: suppression of α-glucoside hydrolase function (statement in words). The format is biochemical.
Details: not given
With `N[C@H]1C=C(CO)[C@@H](O)[C@H](O)[C@H]1O` [valienamine], the “action of suppressing the function of α-glucoside hydrolase” value is given as “possesses a highly valuable action of suppressing the function of α-glucoside hydrolase”.
